In BindingDB's records for patent WO2025051920 (Sanofi-Aventis Deutschland, 2025):

biological target: Interleukin-23 subunit alpha/receptor (UniProt Q5VWK5); experiment: ELISA assay for specific human IL-23R inhibitors
Method: A 384-well plate was coated with 50 µl/well of human IL-23 at a final concentration of […] and incubated overnight at 4°C. The wells were washed 3 times with […] wash buffer and blocked with […] blocking buffer for 60 minutes at room temperature and washed again. 20 µl of serially diluted test peptides was added to each well and subsequently 20 µl of recombinant human IL-23R-Fc chimera at final concentration of […]. The plate was incubated for 60 minutes at room temperature. After the wells were washed, bound IL-23R-Fc was detected with goat anti-hu- IgG 1 -HRP antibody. Signals were visualized with QuantaBlu Fluorogenic Peroxidase Substrate.

Sequence of Interleukin-23 subunit alpha/receptor (Q9NPF7 whole entry): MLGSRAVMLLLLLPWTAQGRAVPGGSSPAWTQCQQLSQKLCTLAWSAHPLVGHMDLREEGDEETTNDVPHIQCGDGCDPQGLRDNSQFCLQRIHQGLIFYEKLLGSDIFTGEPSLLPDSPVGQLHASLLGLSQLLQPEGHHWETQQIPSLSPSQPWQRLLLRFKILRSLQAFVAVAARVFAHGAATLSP
Sequence of Interleukin-23 subunit alpha/receptor (Q5VWK5 whole entry): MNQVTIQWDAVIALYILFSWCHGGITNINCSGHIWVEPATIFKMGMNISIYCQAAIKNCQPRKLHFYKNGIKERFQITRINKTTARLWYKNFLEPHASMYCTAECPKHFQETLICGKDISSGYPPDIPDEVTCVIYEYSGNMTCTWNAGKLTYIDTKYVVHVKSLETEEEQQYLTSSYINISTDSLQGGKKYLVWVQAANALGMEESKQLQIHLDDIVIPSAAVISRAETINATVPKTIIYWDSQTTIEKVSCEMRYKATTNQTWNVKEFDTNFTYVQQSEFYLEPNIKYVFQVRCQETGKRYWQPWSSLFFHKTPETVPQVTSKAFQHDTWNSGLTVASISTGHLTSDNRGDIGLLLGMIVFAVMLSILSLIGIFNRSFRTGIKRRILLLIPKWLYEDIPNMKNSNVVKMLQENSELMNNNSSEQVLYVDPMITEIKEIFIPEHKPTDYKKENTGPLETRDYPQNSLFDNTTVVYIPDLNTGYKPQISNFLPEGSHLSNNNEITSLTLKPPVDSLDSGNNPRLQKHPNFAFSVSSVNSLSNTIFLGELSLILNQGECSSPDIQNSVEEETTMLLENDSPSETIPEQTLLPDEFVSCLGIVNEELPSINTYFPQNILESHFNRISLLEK

SMILES	IC50 [nM]
COc1ccc(C[C@@H]2NC(=O)[C@H](CC(C)C)NC(=O)[C@H](CCC(N)=O)NC(=O)[C@H](Cc3c[nH]c4ccccc34)NC(=O)[C@H]([C@@H](C)O)NC(=O)[C@H](CC(N)=O)NC(=O)[C@H](NC(C)=O)CCCCNC(=O)C[C@@H](C(=O)N[C@@H](CC(N)=O)C(=O)N[C@@H](CC(N)=O)C(=O)O)NC(=O)C(C)(C)NC(=O)[C@H](Cc3ccc4ccccc4c3)NC2=O)cc1 [WO2025051920, Example 1]	0.63
COc1ccc(C[C@@H]2NC(=O)[C@H](C)NC(=O)[C@H](CCC(N)=O)NC(=O)[C@H](Cc3c[nH]c4ccccc34)NC(=O)[C@H]([C@@H](C)O)NC(=O)[C@H](CC(N)=O)NC(=O)[C@H](NC(C)=O)CCCCNC(=O)C[C@@H](C(=O)N[C@@H](CC(N)=O)C(=O)N[C@@H](CC(N)=O)C(=O)O)NC(=O)C(C)(C)NC(=O)[C@H](Cc3ccc4ccccc4c3)NC2=O)cc1 [WO2025051920, Example 2]	0.69
CC(=O)N[C@@H]1CCCCNC(=O)C[C@@H](C(=O)N[C@@H](CC(N)=O)C(=O)N[C@@H](CC(N)=O)C(=O)O)NC(=O)C(C)(C)NC(=O)[C@H](Cc2ccc3ccccc3c2)NC(=O)[C@H](Cc2ccc(O)cc2)NC(=O)[C@H](CCCNC(=N)N)NC(=O)[C@H](CCC(N)=O)NC(=O)[C@H](Cc2c[nH]c3ccccc23)NC(=O)[C@H]([C@@H](C)O)NC(=O)[C@H](CC(N)=O)NC1=O [WO2025051920, Example 4]	1.59
COc1ccc(C[C@@H]2NC(=O)[C@H](CCCNC(=N)N)NC(=O)[C@H](CCC(N)=O)NC(=O)[C@H](Cc3c[nH]c4ccccc34)NC(=O)[C@H]([C@@H](C)O)NC(=O)[C@H](CC(N)=O)NC(=O)[C@@H](NC(C)=O)CC(=O)NCCCC(C(=O)N[C@@H](CC(N)=O)C(=O)N[C@@H](CC(N)=O)C(=O)O)NC(=O)C(C)(C)NC(=O)[C@H](Cc3ccc4ccccc4c3)NC2=O)cc1 (stereo partly drawn) [WO2025051920, Example 6]	1.96
COc1ccc(C[C@@H]2NC(=O)[C@H](CC(C)C)NC(=O)[C@H](CCC(N)=O)NC(=O)[C@H](Cc3c[nH]c4ccccc34)NC(=O)[C@H]([C@@H](C)O)NC(=O)[C@H](CC(N)=O)NC(=O)[C@H](NC(C)=O)CCCCNC(=O)C[C@@H](C(=O)N[C@@H](CC(N)=O)C(=O)N[C@@H](CC(N)=O)C(=O)O)NC(=O)C(C)(C)NC(=O)[C@H](Cc3cccc4ccccc34)NC2=O)cc1 [WO2025051920, Example 7]	2.47
COc1ccc(C[C@@H]2NC(=O)[C@H](C)NC(=O)[C@H](CCC(N)=O)NC(=O)[C@H](Cc3c[nH]c4ccccc34)NC(=O)[C@H]([C@@H](C)O)NC(=O)[C@H](CC(N)=O)NC(=O)[C@H](NC(C)=O)CCCCNC(=O)C[C@@H](C(=O)N[C@@H](CC(N)=O)C(=O)N[C@@H](CC(N)=O)C(=O)O)NC(=O)C(C)(C)NC(=O)[C@H](Cc3cccc4ccccc34)NC2=O)cc1 [WO2025051920, Example 8]	2.74
COc1ccc(C[C@@H]2NC(=O)[C@H](CCCNC(=N)N)NC(=O)[C@H](CCC(N)=O)NC(=O)[C@H](Cc3cn(C)c4ccccc34)NC(=O)[C@H]([C@@H](C)O)NC(=O)[C@H](CC(N)=O)NC(=O)[C@H](NC(C)=O)CCCCNC(=O)C[C@@H](C(=O)N[C@@H](CC(N)=O)C(=O)N[C@@H](CC(N)=O)C(=O)O)NC(=O)[C@H](CCCCNC(C)=O)NC(=O)[C@H](Cc3ccc4ccccc4c3)NC2=O)cc1 [WO2025051920, Example 10]	3.6
COc1ccc(C[C@@H]2NC(=O)[C@H](CCCNC(=N)N)NC(=O)[C@H](CCC(N)=O)NC(=O)[C@H](Cc3c[nH]c4ccccc34)NC(=O)[C@H]([C@@H](C)O)NC(=O)[C@H](CC(N)=O)NC(=O)[C@H](NC(C)=O)CC(=O)NCCCC[C@@H](C(=O)N[C@@H](CC(N)=O)C(=O)N[C@@H](CC(N)=O)C(=O)O)NC(=O)C(C)(C)NC(=O)[C@H](Cc3cccc4ccccc34)NC2=O)cc1 [WO2025051920, Example 11]	18.9
